According to publication PMC10294832, “Investigation of Naphthyl–Polyamine Conjugates as Antimicrobials and Antibiotic Enhancers” (Antibiotics, 2023):
Values after ≈ are worked out from the molar mass of the structure shown. Values joined by “and” are separate entries in the source; they are usually repeats but may differ in a detail not shown here. Identical values can stand only once.

Legend:
E. coli (ATCC 25922) [1] = assay: Enhancement of erythromycin activity; format: cell-based, Escherichia coli; details: for Eryth/E.c: concentration required to restore erythromycin activity (combination MIC): erythromycin fixed at 10.9 µM (8 µg/mL), E. coli (ATCC 25922); for Eryth/E.c fold change: ratio between intrinsic MIC of test compound and combination MIC, erythromycin 10.9 µM, E. coli
Description: Restoring enhancer concentrations were determined using previously reported protocols.

MRSA (ATCC 43300) [2] = assay: Antimicrobial MIC, MRSA; format: cell-based, methicillin-resistant Staphylococcus aureus; details: Staphylococcus aureus, MRSA (ATCC 43300); mean (n = 2); read-out: MIC MRSA
E. coli (ATCC 25922) [3] = assay: Minimum bactericidal concentration test; format: cell-based; details: Escherichia coli, ATCC25922, same value as MIC
Description: (§1) To conduct a detailed analysis of the antibacterial activity and initial assessment of the mechanism of action, analogue 20f was selected due to its strong antibacterial properties, and because it was devoid of any observed cytotoxic or hemolytic effects. To evaluate the kinetics of antibacterial activity, real-time growth inhibition curves were measured for two Gram-positive bacteria (S. aureus (ATCC 25923), MRSA (CF-Marseille)) and the Gram-negative bacterium E. coli (ATCC 25922). […] These values corresponded to the inhibitory concentrations observed at the 18-hour mark in the real-time growth inhibition curve plots.
(§2) MBC’s were determined following previously reported protocols.

S. aureus (ATCC 25923) [4] = assay: Minimum bactericidal concentration test; format: cell-based; details: Staphylococcus aureus, ATCC25923, same value as MIC
Description: as §1, §2

[5] = test system: P. aeruginosa (ATCC 27853); assay: Enhancement of doxycycline activity; format: cell-based, Pseudomonas aeruginosa; details: for Dox/P.a: concentration required to restore doxycycline activity (combination MIC): doxycycline fixed at 4.5 µM (2 µg/mL); for Dox/P.a: concentration required to restore doxycycline activity (combination MIC) / Concentration of test compound required to restore doxycycline activity: P. aeruginosa (ATCC 27853); for Dox/P.a fold change: ratio between intrinsic MIC of test compound and combination MIC, doxycycline 4.5 µM, P. aeruginosa
human red blood cells = assay: Hemolytic assay; format: cell-based; details: concentration at 10% hemolytic activity on human red blood cells; mean (n = 2)
Description: Hemolysis assays were conducted using the protocols previously reported.

[6] = test system: S. aureus (ATCC 25,923 or ATCC 29213); assay: Antimicrobial MIC, S. aureus; format: cell-based, Staphylococcus aureus; details: Staphylococcus aureus, mean (n = 3)
Procedure, shortened: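 In-house testing to a published method gave the antibacterial MICs, with antibiotics included for comparison; the Candida and Cryptococcus MICs were obtained through CO-ADD's standard screen.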

[7] = test system: C. neoformans (ATCC 208821); assay: Antifungal MIC, C. neoformans; format: cell-based, Cryptococcus neoformans; details: Cryptococcus neoformans, ATCC208821, C. neoformans (ATCC 208821); mean (n = 2)
Procedure, shortened: (§3)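 MICs for the […] bacteria came from an in-house susceptibility test run to an earlier published protocol. The yeasts were screened externally at CO-ADD, University of Queensland, under that facility's standard procedures.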

[8] = test system: K. pneumoniae (ATCC 700603); assay: Antimicrobial MIC, K. pneumoniae; format: cell-based; details: Klebsiella pneumoniae, ATCC700603, mean (n = 2)
[9] = test system: A. baumannii (ATCC 19606); assay: Antimicrobial MIC, A. baumannii; format: cell-based, Acinetobacter baumannii; details: Acinetobacter baumannii, ATCC19606, A. baumannii (ATCC 19606); mean (n = 2)
[10] = test system: P. aeruginosa (PAO1 or ATCC 27853); assay: Antimicrobial MIC, P. aeruginosa; format: cell-based; details: Pseudomonas aeruginosa; P. aeruginosa (PAO1 or ATCC 27853); mean (n = 3); read-out: MIC P. a
Procedure, shortened: as §3

C. albicans (ATCC 90028) = assay: Antifungal MIC, C. albicans; format: cell-based; details: Candida albicans, ATCC90028, mean (n = 2)
Procedure, shortened: as §3

Cytotoxicity assay = format: cell-based, human; details: human, HEK293 human embryonic kidney cells, concentration at 50% cytotoxicity on HEK293 cells; mean (n = 2)
Description: (§4) Cytotoxicity assays were conducted using the protocols previously reported.

E. coli (ATCC 25922) [11] = assay: Antimicrobial MIC, E. coli; format: cell-based, Escherichia coli; details: mean (n = 2)
Procedure, shortened: as §3

MRSA (CF-Marseille) [12] = assay: Real-time growth inhibition curves / MIC; format: cell-based, methicillin-resistant Staphylococcus aureus; details: Staphylococcus aureus, 18-hour mark of real-time growth curve
Description: as §1
(§5) Solutions of compound 20f at concentrations of 2, 4, and 16 µg/mL were each tested in triplicate against S. aureus (ATCC 25923), MRSA (CF-Marseille), and E. coli (ATCC 25922) following previously reported protocols.

MRSA (CF-Marseille) [13] = assay: Minimum bactericidal concentration test; format: cell-based, methicillin-resistant Staphylococcus aureus; details: Staphylococcus aureus, same value as MIC
Description: as §1, §2

E. coli (ATCC 25922) [14] = assay: Real-time growth inhibition curves / MIC; format: cell-based; details: Escherichia coli, ATCC25922, 18-hour mark of real-time growth curve
Description: as §1, §5

S. aureus (ATCC 25923) [15] = assay: Real-time growth inhibition curves / MIC; format: cell-based; details: Staphylococcus aureus, ATCC25923, 18-hour mark of real-time growth curve
Description: as §1, §5

[16] = test system: S. aureus (ATCC 25,923 or ATCC 29213); set-up: method as in PMID 36982955; details: earlier work; cited from earlier work
E. coli (ATCC 25922) [17] = test system: E. coli (ATCC 25922); set-up: method as in PMID 36982955; details: earlier work; cited from earlier work
MRSA (ATCC 43300) [18] = test system: MRSA (ATCC 43300); set-up: method as in PMID 36982955; details: earlier work; cited from earlier work
[19] = test system: P. aeruginosa (ATCC 27853); set-up: method as in PMID 36982955; details: earlier work; cited from earlier work
E. coli = test system: E. coli; set-up: method as in PMID 15225864; details: novobiocin and erythromycin; weak effect; cited from earlier work
[20] = test system: HEK293 human embryonic kidney cells; assay: Cytotoxicity assay; format: cell-based; details: concentration at 50% cytotoxicity on HEK293 cells; mean (n = 2)
Description: as §4

[21] = Escherichia coli, ATCC25922, E. coli (ATCC 25922)

Eryth/E.c: concentration required to restore erythromycin activity (combination MIC) (E. coli (ATCC 25922) [1]) [µM]	MIC (MRSA (ATCC 43300) [2]) [µM]	Dox/P.a: concentration required to restore doxycycline activity (combination MIC) [5] [µM]	MIC [6] [µM]	MIC [7] [µM]	MIC [8] [µM]	MIC [9] [µM]	MIC [10] [µM]	MIC (C. albicans (ATCC 90028)) [µM]	MIC (E. coli (ATCC 25922) [11]; [21]) [µM]	melting point [°C]	Structure (SMILES)	Eryth/E.c fold change (E. coli (ATCC 25922) [1]) [fold]	Dox/P.a fold change [5] [fold]	Hemolysis HC10 (human red blood cells) [µM]	IC50 (Cytotoxicity assay) [µM]	MIC Staphylococcus aureus [16] [µM]	MIC Escherichia coli (E. coli (ATCC 25922) [17]) [µM]	MIC MRSA (MRSA (ATCC 43300) [18]) [µM]	also measured
3.15	≤ 0.25	12.6	3.12	≤ 0.25	> 32	> 32	> 100	> 32	6.3 to 12.5		O=C(CCC(=O)Nc1ccc2ccccc2c1)NCCCNCCCCCCCCCCCCNCCCNC(=O)CCC(=O)Nc1ccc2ccccc2c1.O=C(O)C(F)(F)F.O=C(O)C(F)(F)F [Compound 20f, N^1,N^12-Bis(3-(4-(naphthalen-2-ylamino)-4-oxobutanamido)propyl)dodecane-1,12-diaminium 2,2,2-trifluoroacetate]	2	> 8	>32.2	> 32.2				MBC (E. coli (ATCC 25922) [3]): 6.29 µM and 6.25 µg/mL; MBC (S. aureus (ATCC 25923) [4]): 3.15 µM and 3.13 µg/mL; MIC (E. coli (ATCC 25922) [11]; E. coli (ATCC 25922)): 6.3 µM; MIC (MRSA (CF-Marseille) [12]): 3.15 µM and 3.13 µg/mL; MBC (MRSA (CF-Marseille) [13]): 3.13 µg/mL and 3.15 µM; MIC (E. coli (ATCC 25922) [14]): 6.29 µM and 6.25 µg/mL; MIC (S. aureus (ATCC 25923) [15]): 3.15 µM and 3.13 µg/mL
											O=C(CC(c1ccccc1)(c1ccccc1)c1ccccc1)NCCCNCCCCCCCCNCCCNC(=O)CC(c1ccccc1)(c1ccccc1)c1ccccc1 [Compound 7]					3.13 (≈ 2.59 µg/mL)	7.6 (≈ 6.29 µg/mL)	≤ 0.24	
											O=C(CC(c1ccccc1)c1ccccc1)NCCCNCCCCCCCCNCCCNC(=O)CC(c1ccccc1)c1ccccc1 [Compound 6]					3.13 (≈ 2.11 µg/mL)	2.2 (≈ 1.48 µg/mL)	≤ 0.28	MIC in combination, doxycycline vs. P. aeruginosa [19]: 12.5 µM; fold increase, doxycycline vs. P. aeruginosa [19]: 4 fold
											NCCCNCCCCNCCCNC(=O)Cc1cccc2ccccc12 [Compound 22, naphthylacetylspermine]								doses rendering E. coli sensitive to hydrophobic antibiotics (E. coli): 64 to 128 µg/mL
4.2	43.3	16.9	34	21.7	> 43.3	> 43.3	677	> 43.3	271	132 to 135	O=C(NCCCNCCCCNCCCNC(=O)c1ccc2ccccc2c1)c1ccc2ccccc2c1.O=C(O)C(F)(F)F.O=C(O)C(F)(F)F [Compound 19a, N^1,N^4-Bis(3-(2-naphthamido)propyl)butane-1,4-diaminium 2,2,2-trifluoroacetate]	64		>43.3	26				Concentration of test compound required to restore doxycycline activity ([5]; doxycycline concentration 2 µg/mL): 16.9 µM; Concentration of test compound required to restore doxycycline activity ([5]; doxycycline concentration 4 µg/mL): 8.5 µM; Concentration of test compound required to restore doxycycline activity ([5]; doxycycline concentration 6 µg/mL): 8.5 µM; Concentration of test compound required to restore doxycycline activity ([5]; doxycycline concentration 8 µg/mL): 4.2 µM; IC50 [20]: 26.4 µM
300	0.268	300	300	> 34.3	> 34.3	> 34.3	300	> 34.3	300	203 to 205	O=C(CCC(=O)Nc1ccc(-c2ccccc2)cc1)NCCCNCCCCNCCCNC(=O)CCC(=O)Nc1ccc(-c2ccccc2)cc1.O=C(O)C(F)(F)F.O=C(O)C(F)(F)F [Compound 21a, N^1,N^4-Bis(3-(4-([1,1’-biphenyl]-4-ylamino)-4-oxobutanamido)propyl)butane-1,4-diaminium 2,2,2-trifluoroacetate]	1	1	31.4	> 34.3				
